Values after ≈ are worked out from the molar mass of the structure shown. Active and inactive are the calls of the source. The calls are words filed in the database; no cut-off is given here.
Experiments:
Assay type in all cases: functional
Escherichia coli = test: Antibacterial activity against Escherichia coli ATCC 25922 assessed as inhibition of bacterial growth incubated for 18 hrs by broth microdilution method
Staphylococcus aureus [1] = test: Antibacterial activity against biofilm producer Staphylococcus aureus RN450 assessed as inhibition of bacterial growth incubated for 18 hrs by broth microdilution method
Enterococcus faecalis = test: Antibacterial activity against Enterococcus faecalis ATCC 29212 assessed as inhibition of bacterial growth incubated for 18 hrs by broth microdilution method
[2] = test system: Staphylococcus epidermidis; test: Antibacterial activity against methicillin-susceptible Staphylococcus epidermidis ATCC 12228 assessed as inhibition of bacterial growth incubated for 18 hrs by broth microdilution method
Streptococcus pneumoniae = test: Antibacterial activity against Streptococcus pneumoniae ATCC 49619 assessed as inhibition of bacterial growth incubated for 18 hrs by broth microdilution method
Staphylococcus aureus [3] = test: Antibacterial activity against vancomycin-intermediate Staphylococcus aureus ATCC 700699 assessed as inhibition of bacterial growth incubated for 18 hrs by broth microdilution method
Staphylococcus aureus [4] = test: Antibacterial activity against methicillin-resistant Staphylococcus aureus clinical strain 19449 assessed as inhibition of bacterial growth incubated for 18 hrs by broth microdilution method
Klebsiella pneumoniae = test: Antibacterial activity against Klebsiella pneumoniae ATCC 700603 assessed as inhibition of bacterial growth incubated for 18 hrs by broth microdilution method
Pseudomonas aeruginosa = test: Antibacterial activity against Pseudomonas aeruginosa ATCC 27853 assessed as inhibition of bacterial growth incubated for 18 hrs by broth microdilution method
Staphylococcus aureus [5] = test: Antibacterial activity against methicillin-susceptible Staphylococcus aureus ATCC 25923 assessed as inhibition of bacterial growth incubated for 18 hrs by broth microdilution method
[6] = test system: Staphylococcus epidermidis; test: Antibacterial activity against biofilm producer Staphylococcus epidermidis ATCC 35984 assessed as inhibition of bacterial growth incubated for 18 hrs by broth microdilution method
[7] = test system: Staphylococcus epidermidis; test: Antibacterial activity against linezolid-resistant Staphylococcus epidermidis NIL 4399/19 assessed as inhibition of bacterial growth incubated for 18 hrs by broth microdilution method
Enterococcus faecium = test: Antibacterial activity against vancomycin-resistant Enterococcus faecium assessed as inhibition of bacterial growth incubated for 18 hrs by broth microdilution method

Row | Compound | Activity (Escherichia coli) | MIC (Staphylococcus aureus [1]) | MIC (Enterococcus faecalis) | MIC [2] | MIC (Streptococcus pneumoniae) | MIC (Staphylococcus aureus [3]) | MIC (Staphylococcus aureus [4]) | Activity (Klebsiella pneumoniae) | Activity (Pseudomonas aeruginosa) | MIC (Staphylococcus aureus [5]) | MIC [6] | MIC [7] | MIC (Enterococcus faecium)
1 | O=C(Nc1ccc(F)cc1)NC1CCN(CCC(Oc2ccc(C(F)(F)F)cc2)c2ccccc2)CC1 (racemic) | inactive | 3.12 µg/mL (≈ 6.06 µM) | 6.25 µg/mL (≈ 12.1 µM) | 6.25 µg/mL (≈ 12.1 µM) | > 12.5 µg/mL | 6.25 µg/mL (≈ 12.1 µM) | 3.12 µg/mL (≈ 6.06 µM) | inactive | inactive | 6.25 µg/mL (≈ 12.1 µM) | 3.12 µg/mL (≈ 6.06 µM) | 3.12 µg/mL (≈ 6.06 µM) | 3.12 µg/mL (≈ 6.06 µM)
2 | O=C(Nc1cccc(Cl)c1)NC1CCN(CCC(Oc2ccccc2)c2ccccc2)CC1 (racemic) | inactive | 1.56 µg/mL (≈ 3.36 µM) |  | 6.25 µg/mL (≈ 13.5 µM) | 12.5 µg/mL (≈ 26.9 µM) | 12.5 µg/mL (≈ 26.9 µM) | 12.5 µg/mL (≈ 26.9 µM) | inactive | inactive | 6.25 µg/mL (≈ 13.5 µM) | 3.12 µg/mL (≈ 6.73 µM) | 6.25 µg/mL (≈ 13.5 µM) | 
3 | O=C(Nc1cccc(Cl)c1)NC1CCN(CCC(Oc2ccc(C(F)(F)F)cc2)c2ccccc2)CC1 (centres undefined) | inactive | 3.12 µg/mL (≈ 5.87 µM) | 6.25 µg/mL (≈ 11.7 µM) | 0.78 µg/mL (≈ 1.47 µM) | > 12.5 µg/mL | 6.25 µg/mL (≈ 11.7 µM) | 6.25 µg/mL (≈ 11.7 µM) | inactive | inactive | 0.78 µg/mL (≈ 1.47 µM) | 3.12 µg/mL (≈ 5.87 µM) | 3.12 µg/mL (≈ 5.87 µM) | 1.56 µg/mL (≈ 2.93 µM)
4 | O=C(Nc1ccc(Cl)cc1)NC1CCN(CCC(Oc2ccc(C(F)(F)F)cc2)c2ccccc2)CC1 (racemic) | inactive | 1.56 µg/mL (≈ 2.93 µM) |  | > 12.5 µg/mL | 6.25 µg/mL (≈ 11.7 µM) | > 12.5 µg/mL | 6.25 µg/mL (≈ 11.7 µM) | inactive | inactive | > 12.5 µg/mL | 3.12 µg/mL (≈ 5.87 µM) | > 12.5 µg/mL | 
5 | COc1cccc(OC(CCN2CCC(NC(=O)Nc3cccc(Cl)c3)CC2)c2ccccc2)c1 (racemic) | inactive | 3.12 µg/mL (≈ 6.33 µM) |  | 6.25 µg/mL (≈ 12.7 µM) | 12.5 µg/mL (≈ 25.3 µM) | 12.5 µg/mL (≈ 25.3 µM) | 12.5 µg/mL (≈ 25.3 µM) | inactive | inactive | 12.5 µg/mL (≈ 25.3 µM) | 6.25 µg/mL (≈ 12.7 µM) | 6.25 µg/mL (≈ 12.7 µM) | 
6 | COc1ccccc1OC(CCN1CCC(NC(=O)Nc2cccc(Cl)c2)CC1)c1ccccc1 (centres undefined) | inactive | > 12.5 µg/mL |  | > 12.5 µg/mL | > 12.5 µg/mL | > 12.5 µg/mL | > 12.5 µg/mL | inactive | inactive | > 12.5 µg/mL | 12.5 µg/mL (≈ 25.3 µM) | > 12.5 µg/mL | 
7 | O=C(Nc1cccc(Cl)c1)NC1CCN(CCC(Oc2ccccc2F)c2ccccc2)CC1 (racemic) | inactive | 6.25 µg/mL (≈ 13 µM) |  | 12.5 µg/mL (≈ 25.9 µM) | 12.5 µg/mL (≈ 25.9 µM) | 12.5 µg/mL (≈ 25.9 µM) | 12.5 µg/mL (≈ 25.9 µM) | inactive | inactive | 12.5 µg/mL (≈ 25.9 µM) | 12.5 µg/mL (≈ 25.9 µM) | 6.25 µg/mL (≈ 13 µM) | 
8 | O=C(O)c1cn(C2CC2)c2cc(N3CCNCC3)c(F)cc2c1=O [CIPROFLOXACIN] |  | 0.78 µg/mL (≈ 2.35 µM) | 0.78 µg/mL (≈ 2.35 µM) | 0.78 µg/mL (≈ 2.35 µM) |  |  |  |  |  | 0.78 µg/mL (≈ 2.35 µM) | 0.78 µg/mL (≈ 2.35 µM) | > 12.5 µg/mL | 0.78 µg/mL (≈ 2.35 µM)
9 | O=C(Nc1cccc(Cl)c1)N1CCN(CCC(Oc2ccc(C(F)(F)F)cc2)c2ccccc2)CC1 (racemic) | inactive | > 12.5 µg/mL |  | > 12.5 µg/mL | > 12.5 µg/mL | > 12.5 µg/mL | > 12.5 µg/mL | inactive | inactive | > 12.5 µg/mL | > 12.5 µg/mL | > 12.5 µg/mL | 
10 | O=C(Nc1cccc(Cl)c1)NC1CCN(CCC(Oc2cccc(F)c2)c2ccccc2)CC1 (racemic) | inactive | 3.12 µg/mL (≈ 6.48 µM) | 6.25 µg/mL (≈ 13 µM) | 6.25 µg/mL (≈ 13 µM) | 12.5 µg/mL (≈ 25.9 µM) | 6.25 µg/mL (≈ 13 µM) | 6.25 µg/mL (≈ 13 µM) | inactive | inactive | 6.25 µg/mL (≈ 13 µM) | 3.12 µg/mL (≈ 6.48 µM) | 6.25 µg/mL (≈ 13 µM) | 1.56 µg/mL (≈ 3.24 µM)
11 | O=C(Nc1cccc(Cl)c1)NC1CCN(CCC(Oc2ccccc2C(F)(F)F)c2ccccc2)CC1 (racemic) | inactive | 3.12 µg/mL (≈ 5.87 µM) |  | 12.5 µg/mL (≈ 23.5 µM) | 12.5 µg/mL (≈ 23.5 µM) | 3.12 µg/mL (≈ 5.87 µM) | 3.12 µg/mL (≈ 5.87 µM) | inactive | inactive | 3.12 µg/mL (≈ 5.87 µM) | > 12.5 µg/mL | 3.12 µg/mL (≈ 5.87 µM) | 
12 | O=C(Nc1cccc(F)c1)NC1CCN(CCC(Oc2ccc(C(F)(F)F)cc2)c2ccccc2)CC1 (centres undefined) | inactive | 1.56 µg/mL (≈ 3.03 µM) | 3.12 µg/mL (≈ 6.06 µM) | 3.12 µg/mL (≈ 6.06 µM) | 6.25 µg/mL (≈ 12.1 µM) | 6.25 µg/mL (≈ 12.1 µM) | 3.12 µg/mL (≈ 6.06 µM) | inactive | inactive | 6.25 µg/mL (≈ 12.1 µM) | 3.12 µg/mL (≈ 6.06 µM) | 3.12 µg/mL (≈ 6.06 µM) | 0.78 µg/mL (≈ 1.51 µM)
13 | O=C(Nc1ccccc1)NC1CCN(CCC(Oc2ccc(C(F)(F)F)cc2)c2ccccc2)CC1 (racemic) | inactive | > 12.5 µg/mL |  | > 12.5 µg/mL | > 12.5 µg/mL | > 12.5 µg/mL | > 12.5 µg/mL | inactive | inactive | > 12.5 µg/mL | 12.5 µg/mL (≈ 25.1 µM) | > 12.5 µg/mL | 
14 | COc1ccc(OC(CCN2CCC(NC(=O)Nc3cccc(Cl)c3)CC2)c2ccccc2)cc1 (racemic) | inactive | 6.25 µg/mL (≈ 12.7 µM) |  | 12.5 µg/mL (≈ 25.3 µM) | > 12.5 µg/mL | 6.25 µg/mL (≈ 12.7 µM) | 12.5 µg/mL (≈ 25.3 µM) | inactive | inactive | 12.5 µg/mL (≈ 25.3 µM) | 6.25 µg/mL (≈ 12.7 µM) | 6.25 µg/mL (≈ 12.7 µM) | 
15 | O=C(Nc1cccc(Cl)c1)NC1CCN(CCC(Oc2ccccc2Cl)c2ccccc2)CC1 (racemic) | inactive | 1.56 µg/mL (≈ 3.13 µM) | 6.25 µg/mL (≈ 12.5 µM) | 6.25 µg/mL (≈ 12.5 µM) | 12.5 µg/mL (≈ 25.1 µM) | 6.25 µg/mL (≈ 12.5 µM) | 6.25 µg/mL (≈ 12.5 µM) | inactive | inactive | 6.25 µg/mL (≈ 12.5 µM) | 3.12 µg/mL (≈ 6.27 µM) | 3.12 µg/mL (≈ 6.27 µM) | 6.25 µg/mL (≈ 12.5 µM)
16 | O=C(Nc1cccc(Cl)c1)NC1CCN(CCC(Oc2ccc(F)cc2)c2ccccc2)CC1 (racemic) | inactive | 3.12 µg/mL (≈ 6.48 µM) | 6.25 µg/mL (≈ 13 µM) | 6.25 µg/mL (≈ 13 µM) | 12.5 µg/mL (≈ 25.9 µM) | 6.25 µg/mL (≈ 13 µM) | 6.25 µg/mL (≈ 13 µM) | inactive | inactive | 6.25 µg/mL (≈ 13 µM) | 3.12 µg/mL (≈ 6.48 µM) | 6.25 µg/mL (≈ 13 µM) | 1.56 µg/mL (≈ 3.24 µM)

Source: ChEMBL document CHEMBL5346933, “Design and synthesis of novel arylurea derivatives of aryloxy(1-phenylpropyl) alicyclic diamines with antimicrobial activity against multidrug-resistant Gram-positive bacteria” (Eur J Med Chem, 2023)
